Data from patent publication US5652222A, “Selective inhibition of leukemic cell proliferation by bcr-abl antisense oligonucleotides” (Temple University-of The Commonwealth System of Higher …, priority 1993, dated 1997).

How the values were obtained:
[1] = test system: normal hematopoietic progenitor cells (normal bone marrow MNC); experiment: CFU-GM colony formation of normal hematopoietic progenitor cells; assay type: cell-based, human; conditions: Table 3; 40 μg/ml at 0 h, 20 μg/ml 18 h later; 12 days; mean ± SD; control 263 ± 10
From the text: Normal bone marrow mononuclear cells (MNC) were obtained by aspiration from consenting volunteers and enriched for hematopoietic progenitors as previously reported by numerous investigators (Zamecnick et al., Proc. Natl. Acad. Sci. U.S.A. 83, 4143-4147 (1986); Caracciolo et al., J. Clin. Invest. 85, 55-61 (1990)). In brief, marrow cells were subjected to Ficoll-Hypaque density gradient sedimentation and then depleted of adherent monocyte-macrophage and T-lymphocytes by adherence to plastic Petri dishes and rosetting with neuraminidase-treated sheep red blood cells, respectively. Philadelphia chromosome-positive blast cells were isolated by Ficoll-Hypaque density gradient sedimentation from a CML patient in blast crisis (L-6 type junction). […] The residual non-blast cells had the morphological appearance of small lymphocytes. 25,000 MNC and 25,000 CML blast cells were combined and incubated with bcr-abl breakpoint-Specific antisense oligomer (SEQ ID NO:3) (40 μg/ml at h 0; 20 μg/ml 18 hours later) or with a 4 nucleotide mismatch bcr-abl antisense oligomer (SEQ ID NO:2) (40 μg/ml at 0 h; 20 μg/ml 18 hours later) or left untreated. […] At the end of the incubation period colonies were counted. […]

[2] = test system: Philadelphia chromosome-positive blast cells of CML patients in blast crisis, L-6 (b2a2) type junction; experiment: Colony formation of CML blast crisis patient cells expressing the b2a2 (L-6) junction; assay type: cell-based, human
[3] = test system: bcr-abl (b2/a2) transcripts; experiment: RT-PCR of bcr-abl transcripts in tissues of leukemic SCID mice; assay type: in vivo, SCID mice (human leukemic cells)
Description: According to a third assay, the extent of leukemic disease was assessed by chain RT-PCR to monitor the expression of b2/a2 transcripts (assay sensitivity=[…]) in total RNA isolated from bone marrow cells, splenocytes, peripheral blood leukocytes, liver, lung and brain tissues. Depending on the number of BV173 cells injected, various numbers of leukemic cells were detected by clonogenic assay and RT-PCR in murine tissues, 3 and 6 weeks after injection. A few days before the expected death of leukemic SCID mice, approximately 80, 65, and 10% cALLA-positive cells were detected in bone marrow cells, splenocytes and peripheral blood leukocytes, respectively.
To determine whether synthetic phosphorothioate oligodeoxynucleotides targeted against the bcr-abl junction of […] cells would modify the disease process in SCID mice. SCID mice were injected with 10^6 BV173 cells. The mice then received 1 mg of sense (ATCAATAAGG AAGCCCTTCAGCG, SEQ ID NO:34) or antisense ([…] ATTGAT, SEQ ID NO:29) b2/a2 bcr-abl phosphorothioate oligodeoxynucleotides (pyrogen leven <1 Eu/mg; 0.2 ml in Iscove modified Dulbecco medium in 5-10 seconds) intravenously for each of 9 consecutive days, beginning either 7 or 21 days after introducing 10^6 BV173 cells. Control mice received the diluent (iscove's modified Dulbecco medium) only. These time points approximate distinct disease stages in humans.
At 7 (+7) and 21 (+21) days after injecting SCID mice with 10^6 BV173 cells, single cell suspensions were prepared from various tissues. After lysing red cells with 0.83% NH4 Cl buffered with 0.17 mM Tris-HCl, pH 7.4, total RNA was extracted as described (Chomczynski and Sacchi, Anal. Biochem. 162, 156 (1987)) and the suspension was divided into two equal aliquots. Bcr-abl and β-actin transcripts were reverse-transcribed and amplified with specific primers and Taq polymerase as described by Szczylik et al., Science 253, 562 (1991). Amplification products were separated on a 2% agarose gel, transferred to a nitrocellulose filter and hybridized with a synthetic 40-base c-abl fragment or 20-base β-actinfragment end-labeled with [γ^32 -P]-ATP and polynucleotide kinase. The c-abl probe recognizes an amplified 257-bp sequence containing the bcr-abl junction: the β-actin probe recognizes a 209-bp fragment, contained within the 5' and 3' β-actin primers (Tokunaga et al., Nucleic Acids Res. 14, 2829 (1986)).

| Substance | Colonies or Clusters, CFU-GM [1] | % Inhibition ([2]; Table 1, patient 1, number of colonies vs untreated) | Number of Colonies, Antisense-treated ([2]; Table 1, patient 3, 40 μg/ml at start, 20 μg/ml 18 h later, untreated 480 ± 88) | bcr-abl transcripts in tissues ([3]; from day +7, 12 days after last treatment (4 weeks), blood, spleen, bone marrow, liver, lung, brain) | bcr-abl (b2/a2) transcripts in tissues ([3]; from day +7, 26 days after last treatment (6 weeks), blood leukocytes, spleen, bone marrow, liver, lung, brain) | bcr-abl transcripts in tissues ([3]; from day +21, 12 days after last treatment (6 weeks), blood, spleen, bone marrow, liver, lungs, brain) | bcr-abl transcripts in tissues ([3]; from day +21, 26 days after treatment (8 weeks)) |
| --- | --- | --- | --- | --- | --- | --- | --- |
| SEQ ID NO:3: synthetic 18-mer GAAGGGCTTC TTCCTTAT specific for the 18-nucleotide target sequence of the L-6 bcr-abl junction (antisense GAAGGGCTTCTTCCTTAT; chemistry not given here) | 253 ± 35 colonies or clusters | 75% | 50 ± 12 colonies | – | – | – | – |
| SEQ ID NO:34: phosphorothioate sense sequence ATCAATAAGGAAGCCCTTCAGCG (23-mer b2a2 sense) (sense ATCAATAAGGAAGCCCTTCAGCG; all phosphorothioate, sugars by position and methylation of C not given here) | – | – | – | bcr-abl transcripts in each of the tissues analyzed except brain | readily detected in each tissue | Bcr-abl transcripts were detected | readily detectable |
